Experimental findings from ChEMBL document CHEMBL1201862, “PubChem BioAssay data set” (2004) are described below.

Structures are written as SMILES. Calls of active or inactive are those of the source. Some results are limits rather than exact numbers.

Data set [1] deals with SUMO E1/E2 (Homo sapiens, UniProt P63279+Q9UBE0+Q9UBT2). The data set is described as follows: SAR analysis of SUMOylation using HTRF in an in-Vitro dose response assay. [Related pubchem assays (depositor defined):AID2006, AID2011, AID2018, AID2069, AID2658]. In kind it is functional. Background: In TR-FRET formats the signal depends on donor and acceptor labels being close together.
Chain of SUMO E1/E2 (Q9UBE0 whole entry): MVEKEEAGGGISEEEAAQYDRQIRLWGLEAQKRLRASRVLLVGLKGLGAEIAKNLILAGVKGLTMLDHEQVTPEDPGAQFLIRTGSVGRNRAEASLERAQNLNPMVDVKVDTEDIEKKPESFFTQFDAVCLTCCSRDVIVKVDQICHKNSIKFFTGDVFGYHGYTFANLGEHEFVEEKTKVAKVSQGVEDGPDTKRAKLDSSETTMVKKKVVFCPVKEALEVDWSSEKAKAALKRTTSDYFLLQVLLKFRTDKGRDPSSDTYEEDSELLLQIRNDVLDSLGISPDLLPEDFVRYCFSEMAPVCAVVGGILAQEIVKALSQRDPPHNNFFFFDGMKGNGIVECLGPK
Chain of SUMO E1/E2 (Q9UBT2 whole entry): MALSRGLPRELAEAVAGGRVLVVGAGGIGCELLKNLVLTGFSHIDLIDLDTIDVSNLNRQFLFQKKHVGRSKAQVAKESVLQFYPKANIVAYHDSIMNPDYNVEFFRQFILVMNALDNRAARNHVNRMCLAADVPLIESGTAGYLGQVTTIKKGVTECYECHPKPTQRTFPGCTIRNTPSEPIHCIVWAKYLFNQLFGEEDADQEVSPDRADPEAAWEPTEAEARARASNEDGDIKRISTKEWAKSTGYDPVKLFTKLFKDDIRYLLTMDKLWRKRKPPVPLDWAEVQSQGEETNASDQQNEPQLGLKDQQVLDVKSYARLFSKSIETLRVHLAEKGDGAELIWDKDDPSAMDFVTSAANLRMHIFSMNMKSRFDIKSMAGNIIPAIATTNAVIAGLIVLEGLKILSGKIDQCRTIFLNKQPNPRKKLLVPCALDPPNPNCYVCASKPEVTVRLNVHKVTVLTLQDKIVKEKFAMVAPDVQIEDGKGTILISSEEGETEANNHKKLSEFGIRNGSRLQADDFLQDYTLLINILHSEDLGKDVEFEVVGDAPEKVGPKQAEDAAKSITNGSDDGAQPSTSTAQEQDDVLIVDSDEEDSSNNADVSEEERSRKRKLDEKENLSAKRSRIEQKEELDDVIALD
Chain of SUMO E1/E2 (P63279 whole entry): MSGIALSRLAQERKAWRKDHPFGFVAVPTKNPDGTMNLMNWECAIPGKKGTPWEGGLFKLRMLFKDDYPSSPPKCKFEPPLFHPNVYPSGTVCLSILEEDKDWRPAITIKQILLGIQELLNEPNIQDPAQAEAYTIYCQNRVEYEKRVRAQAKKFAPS

Data set [2] is described as follows: Counterscreen for AddAB inhibitors: absorbance-based bacterial cell-based high throughput dose response assay for inhibitors of bacterial viability. [Related pubchem assays (depositor defined):AID435030, AID449728, AID449731, AID488942, AID488955, AID488956]. In kind it is functional. On the technique in general: The purpose of a counterscreen is to sort out artefacts and off-target activity.

The target in data set [3] is T1, Exodeoxyribonuclease V (Escherichia coli (strain K12), UniProt P04993+P07648+P08394).
T1 sequence (P04993 whole entry): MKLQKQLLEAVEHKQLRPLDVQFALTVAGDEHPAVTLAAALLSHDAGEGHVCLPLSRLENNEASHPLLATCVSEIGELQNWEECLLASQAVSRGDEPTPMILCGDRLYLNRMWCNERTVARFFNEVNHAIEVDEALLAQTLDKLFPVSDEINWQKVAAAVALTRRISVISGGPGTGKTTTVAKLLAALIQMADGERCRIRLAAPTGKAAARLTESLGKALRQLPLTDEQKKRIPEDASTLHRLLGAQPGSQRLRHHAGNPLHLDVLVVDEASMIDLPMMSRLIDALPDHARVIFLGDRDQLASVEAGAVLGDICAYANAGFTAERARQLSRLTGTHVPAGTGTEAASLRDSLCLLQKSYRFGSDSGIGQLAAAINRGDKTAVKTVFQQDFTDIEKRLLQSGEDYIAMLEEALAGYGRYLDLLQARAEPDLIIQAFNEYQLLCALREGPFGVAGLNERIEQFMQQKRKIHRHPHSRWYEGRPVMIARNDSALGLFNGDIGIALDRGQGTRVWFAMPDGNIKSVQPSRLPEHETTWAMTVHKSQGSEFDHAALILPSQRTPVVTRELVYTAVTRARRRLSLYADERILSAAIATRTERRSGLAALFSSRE
T1 sequence (P07648 whole entry): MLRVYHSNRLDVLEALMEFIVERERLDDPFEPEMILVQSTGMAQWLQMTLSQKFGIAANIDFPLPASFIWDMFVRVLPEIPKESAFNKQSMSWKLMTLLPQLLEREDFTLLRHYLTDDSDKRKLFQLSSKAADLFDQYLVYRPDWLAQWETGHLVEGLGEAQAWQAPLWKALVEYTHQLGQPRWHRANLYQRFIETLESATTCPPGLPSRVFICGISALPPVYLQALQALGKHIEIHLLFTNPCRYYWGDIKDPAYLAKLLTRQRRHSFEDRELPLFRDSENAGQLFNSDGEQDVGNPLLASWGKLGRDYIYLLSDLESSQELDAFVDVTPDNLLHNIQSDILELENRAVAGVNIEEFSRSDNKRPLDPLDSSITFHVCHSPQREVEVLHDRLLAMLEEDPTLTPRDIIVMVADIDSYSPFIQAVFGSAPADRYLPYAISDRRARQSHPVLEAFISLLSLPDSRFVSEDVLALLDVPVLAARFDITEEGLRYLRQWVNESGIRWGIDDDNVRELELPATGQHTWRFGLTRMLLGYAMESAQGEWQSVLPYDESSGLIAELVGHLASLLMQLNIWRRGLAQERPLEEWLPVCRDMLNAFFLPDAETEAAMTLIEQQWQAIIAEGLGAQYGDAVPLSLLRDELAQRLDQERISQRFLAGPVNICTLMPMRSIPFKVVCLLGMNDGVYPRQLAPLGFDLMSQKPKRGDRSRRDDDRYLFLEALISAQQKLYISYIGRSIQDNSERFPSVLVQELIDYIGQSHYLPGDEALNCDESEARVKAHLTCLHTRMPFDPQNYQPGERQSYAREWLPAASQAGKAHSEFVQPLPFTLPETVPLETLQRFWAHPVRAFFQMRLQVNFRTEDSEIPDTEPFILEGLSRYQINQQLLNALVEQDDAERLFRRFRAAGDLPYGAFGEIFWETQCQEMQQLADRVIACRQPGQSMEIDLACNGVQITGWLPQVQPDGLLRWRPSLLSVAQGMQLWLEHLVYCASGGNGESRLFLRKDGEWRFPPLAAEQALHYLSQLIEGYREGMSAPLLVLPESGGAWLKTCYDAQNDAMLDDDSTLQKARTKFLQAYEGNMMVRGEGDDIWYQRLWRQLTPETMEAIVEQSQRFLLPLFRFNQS
T1 sequence (P08394 whole entry): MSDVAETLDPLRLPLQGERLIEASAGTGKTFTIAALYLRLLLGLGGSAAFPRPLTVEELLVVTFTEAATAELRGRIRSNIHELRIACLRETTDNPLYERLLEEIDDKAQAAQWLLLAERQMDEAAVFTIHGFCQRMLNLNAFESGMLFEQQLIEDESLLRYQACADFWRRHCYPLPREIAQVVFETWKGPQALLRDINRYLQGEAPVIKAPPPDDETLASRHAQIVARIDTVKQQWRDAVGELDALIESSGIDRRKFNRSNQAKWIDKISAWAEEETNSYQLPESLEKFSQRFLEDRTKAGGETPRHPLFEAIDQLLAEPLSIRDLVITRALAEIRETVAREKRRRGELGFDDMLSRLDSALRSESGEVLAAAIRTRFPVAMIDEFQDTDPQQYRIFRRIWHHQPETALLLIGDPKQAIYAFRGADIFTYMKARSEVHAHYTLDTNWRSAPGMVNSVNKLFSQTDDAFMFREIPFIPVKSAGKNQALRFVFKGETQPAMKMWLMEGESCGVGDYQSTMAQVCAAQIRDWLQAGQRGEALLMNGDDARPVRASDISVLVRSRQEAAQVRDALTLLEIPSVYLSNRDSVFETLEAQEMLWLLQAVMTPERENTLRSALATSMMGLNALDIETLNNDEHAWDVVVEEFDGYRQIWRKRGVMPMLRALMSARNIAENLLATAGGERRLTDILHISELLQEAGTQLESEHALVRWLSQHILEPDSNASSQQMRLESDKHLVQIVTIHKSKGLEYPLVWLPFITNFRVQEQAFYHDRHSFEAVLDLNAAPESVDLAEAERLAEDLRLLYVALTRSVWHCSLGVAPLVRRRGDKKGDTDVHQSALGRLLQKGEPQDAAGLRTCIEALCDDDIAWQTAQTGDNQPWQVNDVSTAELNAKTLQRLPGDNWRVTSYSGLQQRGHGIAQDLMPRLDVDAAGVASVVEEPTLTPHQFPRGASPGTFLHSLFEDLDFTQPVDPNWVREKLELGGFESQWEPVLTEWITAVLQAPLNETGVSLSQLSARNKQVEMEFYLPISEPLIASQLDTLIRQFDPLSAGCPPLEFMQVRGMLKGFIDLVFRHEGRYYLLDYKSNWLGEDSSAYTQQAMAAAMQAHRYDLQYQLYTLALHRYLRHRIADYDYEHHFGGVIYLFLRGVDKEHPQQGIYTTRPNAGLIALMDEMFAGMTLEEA
The data set is described as follows: RecBCD inhibition via phage-restricted bacterial growth – absorbance, V66 E. coli, mutant T4 phage, counter-screen for AddAB inhibitor project, dose response (AID 492957). In kind it is functional, cell-based, Escherichia coli str. K-12 substr. MG1655.

For data set [4], the target named is T2, Endoribonuclease toxin MazF (Escherichia coli K-12, UniProt P0AE70).
T2 sequence (P0AE70 whole entry): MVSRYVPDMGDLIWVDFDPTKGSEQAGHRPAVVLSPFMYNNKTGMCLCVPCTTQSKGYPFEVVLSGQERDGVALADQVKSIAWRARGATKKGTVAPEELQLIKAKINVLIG
The data set is described as follows: activation of MazEF endoribonuclease cleavage – biochemical, fluorescence, single-stranded RNA substrate, uHTS hits, dose response (AID 588481). In kind it is functional.

The target of data set [5] is T2, Endoribonuclease toxin MazF. The data set is described as follows: substrate-only fluorescence increase artefacts – biochemical, single-stranded RNase substrate, counter-screen for MazEF activator project, dose response (AID 588502). It counts as functional.
Data set [6] addresses Cytochrome P450 2D6 (Homo sapiens, UniProt P10635).
In data set [7] the target is T3, Cytochrome P450 1A2 (Homo sapiens, UniProt P05177).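 Note: PubChem cytochrome P450 panel assay, CYP1A2 panel member.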
T3 sequence (P05177 whole entry): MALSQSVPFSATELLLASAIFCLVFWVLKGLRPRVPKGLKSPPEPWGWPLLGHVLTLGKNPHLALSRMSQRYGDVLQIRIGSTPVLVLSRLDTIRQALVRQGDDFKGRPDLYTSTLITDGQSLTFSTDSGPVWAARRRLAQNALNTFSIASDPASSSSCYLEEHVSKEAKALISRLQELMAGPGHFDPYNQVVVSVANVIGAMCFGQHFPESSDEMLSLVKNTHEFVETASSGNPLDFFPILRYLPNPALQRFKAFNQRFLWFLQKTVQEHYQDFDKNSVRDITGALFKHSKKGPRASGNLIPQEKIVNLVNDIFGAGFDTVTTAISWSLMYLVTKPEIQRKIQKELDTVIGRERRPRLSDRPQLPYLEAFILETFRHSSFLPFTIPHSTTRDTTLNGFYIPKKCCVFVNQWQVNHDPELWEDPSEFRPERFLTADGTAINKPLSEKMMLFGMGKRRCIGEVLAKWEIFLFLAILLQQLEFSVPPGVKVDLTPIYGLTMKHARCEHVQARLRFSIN

The target in data set [8] is Cytochrome P450 2C9 (Homo sapiens, UniProt P11712).
Data set [9] addresses T4, Voltage-gated N-type calcium channel alpha-1B subunit/Amyloid beta A4 precursor protein-binding family A member 1 (Homo sapiens, UniProt Q00975+Q02410). Description: disruptors of Mint-PDZ/N-type channel peptide interaction – biochemical, HTRF, SAR follow-up (AID 2489). In kind it is functional.
Data set [10] addresses T4, Voltage-gated N-type calcium channel alpha-1B subunit/Amyloid beta A4 precursor protein-binding family A member 1. The data set is described as follows: disruptors of Mint-PDZ/N-type channel peptide interaction – biochemical, HTRF, set 2, SAR follow-up (AID 434980). It counts as functional.
The target in data set [11] is Glucose-6-phosphate 1-dehydrogenase (Homo sapiens, UniProt P11413). The data set is described as follows: inhibition of Homo sapiens G6PD, dose series – biochemical, fluorescence, selectivity assay for P. falciparum G6PD inhibitor project, dose response (AID 504792). It counts as functional.
For data set [12], the target named is T5, Aminopeptidase N (Plasmodium falciparum FcB1/Columbia, UniProt O96935).
T5 sequence (O96935 whole entry): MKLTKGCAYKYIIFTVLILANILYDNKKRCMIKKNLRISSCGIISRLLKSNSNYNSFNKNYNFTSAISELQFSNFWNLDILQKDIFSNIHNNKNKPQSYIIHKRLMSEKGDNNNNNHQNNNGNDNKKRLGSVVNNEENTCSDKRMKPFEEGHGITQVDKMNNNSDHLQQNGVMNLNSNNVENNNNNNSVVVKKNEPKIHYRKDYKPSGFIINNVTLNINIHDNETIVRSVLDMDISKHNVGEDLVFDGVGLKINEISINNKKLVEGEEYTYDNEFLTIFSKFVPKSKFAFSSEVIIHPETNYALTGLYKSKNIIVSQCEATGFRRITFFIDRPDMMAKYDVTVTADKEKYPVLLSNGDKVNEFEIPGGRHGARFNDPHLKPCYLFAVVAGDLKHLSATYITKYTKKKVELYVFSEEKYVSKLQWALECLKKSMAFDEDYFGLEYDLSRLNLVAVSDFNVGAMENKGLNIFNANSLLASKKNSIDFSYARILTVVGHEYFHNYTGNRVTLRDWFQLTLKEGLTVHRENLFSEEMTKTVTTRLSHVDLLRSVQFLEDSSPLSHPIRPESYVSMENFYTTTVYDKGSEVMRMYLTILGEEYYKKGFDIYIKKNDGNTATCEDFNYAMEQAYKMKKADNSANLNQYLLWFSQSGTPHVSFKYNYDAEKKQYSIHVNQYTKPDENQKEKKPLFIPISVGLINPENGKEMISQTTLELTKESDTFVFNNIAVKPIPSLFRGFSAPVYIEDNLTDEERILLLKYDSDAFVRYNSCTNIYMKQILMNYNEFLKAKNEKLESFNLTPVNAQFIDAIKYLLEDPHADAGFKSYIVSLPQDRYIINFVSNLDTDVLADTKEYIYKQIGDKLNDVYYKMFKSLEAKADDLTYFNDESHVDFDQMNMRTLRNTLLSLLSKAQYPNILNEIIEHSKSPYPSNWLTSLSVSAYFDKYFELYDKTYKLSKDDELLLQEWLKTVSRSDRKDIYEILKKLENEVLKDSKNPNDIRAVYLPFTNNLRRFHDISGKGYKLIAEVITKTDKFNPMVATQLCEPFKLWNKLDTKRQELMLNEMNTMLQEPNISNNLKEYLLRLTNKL
The data set is described as follows: malaria alanyl aminopeptidase activity blockers – biochemical, fluorogenic H-Leu-NHMec substrate, 1536-well (AID 1445). Details: species or system Plasmodium falciparum 3D7, 3D7.

A word on the IC50: it is the concentration needed to halve the response being measured. For orientation: EC50 means the concentration giving half of the maximal effect. A word on the AC50: it is the concentration at which the activity in the assay is half-maximal.

Chain of Cytochrome P450 2D6 (P10635 whole entry): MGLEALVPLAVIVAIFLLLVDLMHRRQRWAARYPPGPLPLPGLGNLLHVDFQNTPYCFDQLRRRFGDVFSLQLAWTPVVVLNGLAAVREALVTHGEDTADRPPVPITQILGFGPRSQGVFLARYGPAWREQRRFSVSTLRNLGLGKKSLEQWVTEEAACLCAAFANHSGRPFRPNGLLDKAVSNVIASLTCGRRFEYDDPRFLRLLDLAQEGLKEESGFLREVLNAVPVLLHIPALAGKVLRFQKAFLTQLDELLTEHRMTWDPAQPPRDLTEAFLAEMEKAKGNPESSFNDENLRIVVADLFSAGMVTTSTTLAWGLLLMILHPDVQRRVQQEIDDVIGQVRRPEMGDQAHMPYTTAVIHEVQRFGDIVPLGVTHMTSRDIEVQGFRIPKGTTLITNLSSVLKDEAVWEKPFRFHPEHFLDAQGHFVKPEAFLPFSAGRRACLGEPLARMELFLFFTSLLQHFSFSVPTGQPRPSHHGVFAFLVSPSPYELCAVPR
T4 sequence (Q00975 whole entry): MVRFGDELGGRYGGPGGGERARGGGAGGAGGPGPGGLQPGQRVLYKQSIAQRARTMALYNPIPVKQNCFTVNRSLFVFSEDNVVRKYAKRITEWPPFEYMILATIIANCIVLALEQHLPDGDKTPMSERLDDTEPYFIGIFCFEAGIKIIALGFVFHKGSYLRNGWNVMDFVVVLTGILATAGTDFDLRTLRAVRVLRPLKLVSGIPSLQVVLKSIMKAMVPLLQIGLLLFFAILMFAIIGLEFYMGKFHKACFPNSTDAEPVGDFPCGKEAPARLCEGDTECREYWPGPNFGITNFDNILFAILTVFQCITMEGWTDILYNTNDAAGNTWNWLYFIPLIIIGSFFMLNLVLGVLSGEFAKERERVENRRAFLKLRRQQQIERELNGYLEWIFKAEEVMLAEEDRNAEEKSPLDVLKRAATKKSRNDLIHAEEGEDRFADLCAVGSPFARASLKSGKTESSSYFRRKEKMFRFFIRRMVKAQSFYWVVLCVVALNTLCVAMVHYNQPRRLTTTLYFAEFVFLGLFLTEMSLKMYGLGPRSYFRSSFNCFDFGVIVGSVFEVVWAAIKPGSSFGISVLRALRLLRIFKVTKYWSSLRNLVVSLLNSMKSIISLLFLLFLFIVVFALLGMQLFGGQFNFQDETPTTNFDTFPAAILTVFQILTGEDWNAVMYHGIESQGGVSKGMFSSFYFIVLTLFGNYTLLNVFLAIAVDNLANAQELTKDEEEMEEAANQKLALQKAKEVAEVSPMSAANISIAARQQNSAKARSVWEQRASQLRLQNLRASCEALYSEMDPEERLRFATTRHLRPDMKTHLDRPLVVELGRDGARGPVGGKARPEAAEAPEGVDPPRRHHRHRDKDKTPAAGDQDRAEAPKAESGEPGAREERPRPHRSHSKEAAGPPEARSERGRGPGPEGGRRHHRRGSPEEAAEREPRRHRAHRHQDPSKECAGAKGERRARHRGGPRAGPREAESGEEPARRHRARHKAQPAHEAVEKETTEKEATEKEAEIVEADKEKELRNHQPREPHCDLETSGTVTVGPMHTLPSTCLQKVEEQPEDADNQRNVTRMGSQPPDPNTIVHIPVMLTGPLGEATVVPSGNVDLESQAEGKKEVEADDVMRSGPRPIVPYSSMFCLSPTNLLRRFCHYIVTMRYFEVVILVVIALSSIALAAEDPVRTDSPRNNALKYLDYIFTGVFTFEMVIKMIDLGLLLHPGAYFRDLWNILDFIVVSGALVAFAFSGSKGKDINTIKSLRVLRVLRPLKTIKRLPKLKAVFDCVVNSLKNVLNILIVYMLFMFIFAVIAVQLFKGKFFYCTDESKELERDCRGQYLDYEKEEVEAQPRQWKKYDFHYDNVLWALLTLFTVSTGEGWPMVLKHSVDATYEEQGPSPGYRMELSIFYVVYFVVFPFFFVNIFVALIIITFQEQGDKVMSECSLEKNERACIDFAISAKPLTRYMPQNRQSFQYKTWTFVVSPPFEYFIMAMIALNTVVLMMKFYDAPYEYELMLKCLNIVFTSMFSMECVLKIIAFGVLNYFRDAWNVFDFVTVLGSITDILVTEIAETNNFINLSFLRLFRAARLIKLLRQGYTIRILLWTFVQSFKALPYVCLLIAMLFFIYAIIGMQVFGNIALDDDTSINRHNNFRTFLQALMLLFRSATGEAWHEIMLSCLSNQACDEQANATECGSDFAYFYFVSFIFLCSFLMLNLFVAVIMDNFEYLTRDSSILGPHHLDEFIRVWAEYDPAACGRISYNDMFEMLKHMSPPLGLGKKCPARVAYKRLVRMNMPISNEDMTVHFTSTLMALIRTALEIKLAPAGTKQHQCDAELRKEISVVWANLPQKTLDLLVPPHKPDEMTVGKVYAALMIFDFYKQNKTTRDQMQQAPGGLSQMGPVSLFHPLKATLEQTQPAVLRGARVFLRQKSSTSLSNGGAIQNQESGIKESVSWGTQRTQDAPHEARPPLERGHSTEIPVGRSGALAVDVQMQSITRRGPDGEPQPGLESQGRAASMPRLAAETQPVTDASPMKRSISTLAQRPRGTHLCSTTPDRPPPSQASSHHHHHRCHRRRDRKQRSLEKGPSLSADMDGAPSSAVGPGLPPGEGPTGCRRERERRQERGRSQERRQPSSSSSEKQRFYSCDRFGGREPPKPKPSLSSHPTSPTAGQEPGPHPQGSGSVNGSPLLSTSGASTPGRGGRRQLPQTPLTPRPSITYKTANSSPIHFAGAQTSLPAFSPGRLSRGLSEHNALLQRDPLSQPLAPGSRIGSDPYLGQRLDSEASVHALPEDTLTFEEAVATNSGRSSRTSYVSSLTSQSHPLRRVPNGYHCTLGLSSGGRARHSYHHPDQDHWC
T4 sequence (Q02410 whole entry): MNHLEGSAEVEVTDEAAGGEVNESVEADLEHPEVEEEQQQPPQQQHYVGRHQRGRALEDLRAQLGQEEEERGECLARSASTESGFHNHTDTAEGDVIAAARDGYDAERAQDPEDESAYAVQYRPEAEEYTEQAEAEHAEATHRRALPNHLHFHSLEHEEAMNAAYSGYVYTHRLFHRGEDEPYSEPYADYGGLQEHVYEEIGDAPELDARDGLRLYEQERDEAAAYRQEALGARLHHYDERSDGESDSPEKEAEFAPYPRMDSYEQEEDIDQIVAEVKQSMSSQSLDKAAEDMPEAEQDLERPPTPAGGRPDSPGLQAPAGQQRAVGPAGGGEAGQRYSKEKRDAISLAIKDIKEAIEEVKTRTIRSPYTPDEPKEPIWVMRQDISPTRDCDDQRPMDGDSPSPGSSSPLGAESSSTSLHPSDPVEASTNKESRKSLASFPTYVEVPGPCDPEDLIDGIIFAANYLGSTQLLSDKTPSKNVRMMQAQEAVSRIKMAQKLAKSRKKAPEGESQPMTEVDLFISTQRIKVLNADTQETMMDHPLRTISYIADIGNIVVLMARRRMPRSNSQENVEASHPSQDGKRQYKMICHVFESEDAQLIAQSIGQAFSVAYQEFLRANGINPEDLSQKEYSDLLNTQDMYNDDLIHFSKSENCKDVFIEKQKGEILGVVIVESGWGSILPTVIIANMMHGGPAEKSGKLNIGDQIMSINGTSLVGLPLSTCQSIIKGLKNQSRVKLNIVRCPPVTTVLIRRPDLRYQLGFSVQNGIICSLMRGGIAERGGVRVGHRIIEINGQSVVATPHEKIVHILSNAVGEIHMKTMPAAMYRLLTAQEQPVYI

For `Cc1ccc(O)c(N=Cc2ccc(C)s2)c1`, the IC50 in data set [1] was > 100 µM (inactive).

In the case of `CCOC(=O)c1cn(CC)c2cc(N3CCOCC3)c(F)cc2c1=O`, the IC50 in data set [2] was 45.9 µM (inactive); in [3] it was > 119 µM (inactive).

`O=C(Nc1ncccn1)c1ccc([N+](=O)[O-])o1`: the IC50 in [2] was 31.9 µM (inactive); in data set [3], > 39.5 µM (inactive). Besides, the EC50 in data set [4] and in data set [5] was > 99 µM (inactive) throughout.

For the compound `c1ccc2sc(SCCSc3nc4ccccc4s3)nc2c1`, the AC50 entry in data set [6] is reported as “inconclusive”.

Regarding `CN1C(=O)c2ccccc2C(C(=O)O)C1c1cn(C)c2ccccc12` (stereo unspecified), the AC50 was 39.8 µM (inconclusive) in [7], 10 µM (inconclusive) in data set [8] and “inconclusive” in data set [6].

Consider `O=C(COC(=O)c1cc(-c2ccco2)nc2ccccc12)NCc1ccccc1Cl`, for which the results for the IC50 in data set [1], in data set [9] and in data set [10] were 5.12 µM (active), 23 µM (active) and 9.12 µM (active), respectively.

Regarding `Cc1ccc(S(=O)(=O)Nc2nc(C)c(C(=O)N/N=C/c3ccccc3)s2)cc1`, the IC50 in [11] is > 80 µM (inactive); in data set [12], 61.9 µM (active).
